Reference: ChEMBL document CHEMBL2034855, “(18)F-labeled phenyldiazenyl benzothiazole for in vivo imaging of neurofibrillary tangles in Alzheimer's disease brains” (ACS Med Chem Lett, 2012)
One block for each molecule: values may come before it. Activity calls are given as the source filed them. The calls are words filed in the database; no cut-off is given here.

Legend:
Blood [1] = test: Biodistribution in mouse blood at 64.5 kBq, iv measured 10 mins post injection by gamma counting; format: ADME, organism-based; settings: in vivo
Intestine [2] = test: Biodistribution in mouse intestine at 64.5 kBq, iv measured 30 mins post injection by gamma counting; format: ADME, organism-based; settings: in vivo, 0.5 h
Kidney [3] = test: Biodistribution in mouse kidney at 64.5 kBq, iv measured 2 mins post injection by gamma counting; format: ADME, organism-based; settings: in vivo
Lung [4] = test: Biodistribution in mouse lung at 64.5 kBq, iv measured 60 mins post injection by gamma counting; format: ADME, organism-based; settings: in vivo, 1 h
Blood [5] = test: Biodistribution in mouse blood at 64.5 kBq, iv measured 60 mins post injection by gamma counting; format: ADME, organism-based; settings: in vivo, 1 h
Bone [6] = test: Biodistribution in mouse bone at 64.5 kBq, iv measured 60 mins post injection by gamma counting; format: ADME, organism-based, Bone element; settings: in vivo, 1 h
Brain [7] = test: Biodistribution in mouse brain at 64.5 kBq, iv measured 30 mins post injection by gamma counting; format: ADME, organism-based; settings: in vivo, 0.5 h
Stomach [8] = test: Biodistribution in mouse stomach at 64.5 kBq, iv measured 30 mins post injection by gamma counting; format: ADME, organism-based; settings: in vivo, 0.5 h
Intestine [9] = test: Biodistribution in mouse intestine at 64.5 kBq, iv measured 10 mins post injection by gamma counting; format: ADME, organism-based; settings: in vivo
Spleen [10] = test: Biodistribution in mouse spleen at 64.5 kBq, iv measured 2 mins post injection by gamma counting; format: ADME, organism-based; settings: in vivo
Heart [11] = test: Biodistribution in mouse heart at 64.5 kBq, iv measured 60 mins post injection by gamma counting; format: ADME, organism-based; settings: in vivo, 1 h
Brain [12] = test: Biodistribution in mouse brain at 64.5 kBq, iv measured 60 mins post injection by gamma counting; format: ADME, organism-based; settings: in vivo, 1 h
Spleen [13] = test: Biodistribution in mouse spleen at 64.5 kBq, iv measured 10 mins post injection by gamma counting; format: ADME, organism-based; settings: in vivo
Blood [14] = test: Biodistribution in mouse blood at 64.5 kBq, iv measured 2 mins post injection by gamma counting; format: ADME, organism-based; settings: in vivo
Lung [15] = test: Biodistribution in mouse lung at 64.5 kBq, iv measured 10 mins post injection by gamma counting; format: ADME, organism-based; settings: in vivo
Kidney [16] = test: Biodistribution in mouse kidney at 64.5 kBq, iv measured 10 mins post injection by gamma counting; format: ADME, organism-based; settings: in vivo
Spleen [17] = test: Biodistribution in mouse spleen at 64.5 kBq, iv measured 60 mins post injection by gamma counting; format: ADME, organism-based; settings: in vivo, 1 h
Intestine [18] = test: Biodistribution in mouse intestine at 64.5 kBq, iv measured 2 mins post injection by gamma counting; format: ADME, organism-based; settings: in vivo
Bone [19] = test: Biodistribution in mouse bone at 64.5 kBq, iv measured 10 mins post injection by gamma counting; format: ADME, organism-based, Bone element; settings: in vivo
Intestine [20] = test: Biodistribution in mouse intestine at 64.5 kBq, iv measured 60 mins post injection by gamma counting; format: ADME, organism-based; settings: in vivo, 1 h
Heart [21] = test: Biodistribution in mouse heart at 64.5 kBq, iv measured 10 mins post injection by gamma counting; format: ADME, organism-based; settings: in vivo
Liver [22] = test: Biodistribution in mouse liver at 64.5 kBq, iv measured 30 mins post injection by gamma counting; format: ADME, organism-based; settings: in vivo, 0.5 h
Pancreas [23] = test: Biodistribution in mouse pancreas at 64.5 kBq, iv measured 10 mins post injection by gamma counting; format: ADME, organism-based; settings: in vivo
Heart [24] = test: Biodistribution in mouse heart at 64.5 kBq, iv measured 2 mins post injection by gamma counting; format: ADME, organism-based; settings: in vivo
Kidney [25] = test: Biodistribution in mouse kidney at 64.5 kBq, iv measured 60 mins post injection by gamma counting; format: ADME, organism-based; settings: in vivo, 1 h
Bone [26] = test: Biodistribution in mouse bone at 64.5 kBq, iv measured 2 mins post injection by gamma counting; format: ADME, organism-based, Bone element; settings: in vivo
[27] = Octanol-phosphate buffer partition coefficient, log P of the compound at 0.37 MBq after 10 mins by gamma counting; format: physicochemical
Brain [28] = test: Biodistribution in mouse brain at 64.5 kBq, iv measured 10 mins post injection by gamma counting; format: ADME, organism-based; settings: in vivo
[29] = Binding affinity to amyloid beta (1 to 42) aggregates after 30 mins by fluorescence assay
Liver [30] = test: Biodistribution in mouse liver at 64.5 kBq, iv measured 60 mins post injection by gamma counting; format: ADME, organism-based; settings: in vivo, 1 h
Heart [31] = test: Biodistribution in mouse heart at 64.5 kBq, iv measured 30 mins post injection by gamma counting; format: ADME, organism-based; settings: in vivo, 0.5 h
Liver [32] = test: Biodistribution in mouse liver at 64.5 kBq, iv measured 10 mins post injection by gamma counting; format: ADME, organism-based; settings: in vivo
Pancreas [33] = test: Biodistribution in mouse pancreas at 64.5 kBq, iv measured 30 mins post injection by gamma counting; format: ADME, organism-based; settings: in vivo, 0.5 h
Pancreas [34] = test: Biodistribution in mouse pancreas at 64.5 kBq, iv measured 60 mins post injection by gamma counting; format: ADME, organism-based; settings: in vivo, 1 h
Spleen [35] = test: Biodistribution in mouse spleen at 64.5 kBq, iv measured 30 mins post injection by gamma counting; format: ADME, organism-based; settings: in vivo, 0.5 h
Lung [36] = test: Biodistribution in mouse lung at 64.5 kBq, iv measured 30 mins post injection by gamma counting; format: ADME, organism-based; settings: in vivo, 0.5 h
Blood [37] = test: Biodistribution in mouse blood at 64.5 kBq, iv measured 30 mins post injection by gamma counting; format: ADME, organism-based; settings: in vivo, 0.5 h
Stomach [38] = test: Biodistribution in mouse stomach at 64.5 kBq, iv measured 2 mins post injection by gamma counting; format: ADME, organism-based; settings: in vivo
Stomach [39] = test: Biodistribution in mouse stomach at 64.5 kBq, iv measured 60 mins post injection by gamma counting; format: ADME, organism-based; settings: in vivo, 1 h
Pancreas [40] = test: Biodistribution in mouse pancreas at 64.5 kBq, iv measured 2 mins post injection by gamma counting; format: ADME, organism-based; settings: in vivo
Brain [41] = test: Biodistribution in mouse brain at 64.5 kBq, iv measured 2 mins post injection by gamma counting; format: ADME, organism-based; settings: in vivo
Kidney [42] = test: Biodistribution in mouse kidney at 64.5 kBq, iv measured 30 mins post injection by gamma counting; format: ADME, organism-based; settings: in vivo, 0.5 h
Lung [43] = test: Biodistribution in mouse lung at 64.5 kBq, iv measured 2 mins post injection by gamma counting; format: ADME, organism-based; settings: in vivo
Bone [44] = test: Biodistribution in mouse bone at 64.5 kBq, iv measured 30 mins post injection by gamma counting; format: ADME, organism-based, Bone element; settings: in vivo, 0.5 h
Liver [45] = test: Biodistribution in mouse liver at 64.5 kBq, iv measured 2 mins post injection by gamma counting; format: ADME, organism-based; settings: in vivo
Stomach [46] = test: Biodistribution in mouse stomach at 64.5 kBq, iv measured 10 mins post injection by gamma counting; format: ADME, organism-based; settings: in vivo
Brain [47] = test: Drug uptake in normal human brain at 92.5 kBq after 2 hrs by […]; format: ADME, tissue-based
[48] = target: T1, Microtubule-associated protein tau (Homo sapiens, UniProt P10636); test: Binding affinity to recombinant human tau expressed in Escherichia coli after 30 mins by fluorescence assay
T1 sequence (P10636 whole entry): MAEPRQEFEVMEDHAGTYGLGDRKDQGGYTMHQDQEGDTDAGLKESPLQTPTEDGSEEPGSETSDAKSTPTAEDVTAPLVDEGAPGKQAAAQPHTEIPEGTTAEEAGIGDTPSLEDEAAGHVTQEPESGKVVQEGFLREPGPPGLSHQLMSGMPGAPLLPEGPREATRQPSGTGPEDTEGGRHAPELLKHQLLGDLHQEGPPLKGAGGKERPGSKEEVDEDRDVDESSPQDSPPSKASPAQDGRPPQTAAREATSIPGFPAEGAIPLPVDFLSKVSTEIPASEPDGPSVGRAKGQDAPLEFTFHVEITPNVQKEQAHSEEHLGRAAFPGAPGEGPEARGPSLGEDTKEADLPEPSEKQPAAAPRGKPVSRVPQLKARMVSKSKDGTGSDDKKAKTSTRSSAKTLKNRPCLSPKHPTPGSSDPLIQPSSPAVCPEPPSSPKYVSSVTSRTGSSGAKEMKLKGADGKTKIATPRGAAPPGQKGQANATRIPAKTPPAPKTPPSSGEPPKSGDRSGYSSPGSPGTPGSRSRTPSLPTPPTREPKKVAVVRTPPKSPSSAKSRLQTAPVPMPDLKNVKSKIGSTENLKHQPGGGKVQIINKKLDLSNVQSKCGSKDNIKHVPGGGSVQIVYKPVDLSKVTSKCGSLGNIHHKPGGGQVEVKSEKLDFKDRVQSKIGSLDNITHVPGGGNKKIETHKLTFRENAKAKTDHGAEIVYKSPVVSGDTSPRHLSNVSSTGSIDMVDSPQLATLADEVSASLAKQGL

[49] = target: T1, Microtubule-associated protein tau; test: Displacement of Thioflavin S from recombinant human tau expressed in Escherichia coli after 30 mins by fluorescence assay
Homo sapiens [50] = species on record: Homo sapiens; test: Selectivity ratio Ki for amyloid beta (1 to 42) aggregates to Ki for recombinant human tau
[51] = Binding affinity to amyloid beta (1 to 42) aggregates assessed per nanomolar of protein after 30 mins by fluorescence assay; settings: tested as the 18F-labelled form
[52] = target: Amyloid-beta precursor protein (Homo sapiens) (UniProt P05067); test: Binding affinity to amyloid beta (1 to 42) aggregates in human alzheimer's disease patient brain white matter at 92.5 kBq after 2 hrs by immunohistological staining; format: tissue-based; settings: tested as the 18F-labelled form
Sequence of Amyloid-beta precursor protein (Homo sapiens) (P05067 whole entry): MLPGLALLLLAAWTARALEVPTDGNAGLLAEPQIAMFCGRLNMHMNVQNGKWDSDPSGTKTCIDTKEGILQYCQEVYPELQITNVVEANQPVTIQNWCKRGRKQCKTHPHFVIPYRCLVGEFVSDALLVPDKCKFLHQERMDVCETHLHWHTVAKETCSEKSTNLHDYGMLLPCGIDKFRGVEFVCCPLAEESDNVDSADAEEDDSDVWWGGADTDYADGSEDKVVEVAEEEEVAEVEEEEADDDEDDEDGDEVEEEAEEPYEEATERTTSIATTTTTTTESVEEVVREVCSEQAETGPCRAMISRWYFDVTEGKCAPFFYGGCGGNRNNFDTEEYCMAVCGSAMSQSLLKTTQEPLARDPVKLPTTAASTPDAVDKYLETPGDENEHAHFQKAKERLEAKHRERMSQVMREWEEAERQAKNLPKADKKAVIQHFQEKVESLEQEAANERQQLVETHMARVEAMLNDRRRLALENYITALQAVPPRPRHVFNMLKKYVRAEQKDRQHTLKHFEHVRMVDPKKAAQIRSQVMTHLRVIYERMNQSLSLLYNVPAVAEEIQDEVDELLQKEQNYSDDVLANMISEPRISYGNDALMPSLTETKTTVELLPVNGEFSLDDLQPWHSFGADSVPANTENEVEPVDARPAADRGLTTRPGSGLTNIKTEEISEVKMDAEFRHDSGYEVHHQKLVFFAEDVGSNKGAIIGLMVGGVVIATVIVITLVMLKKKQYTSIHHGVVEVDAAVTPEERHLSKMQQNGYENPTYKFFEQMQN

Homo sapiens [53] = species on record: Homo sapiens; test: Binding affinity to senile plaques in human alzheimer's disease patient brain at 92.5 kBq after 30 mins by immunohistological staining
[54] = Displacement of Thioflavin S from amyloid beta (1 to 42) aggregates after 30 mins by fluorescence assay
[55] = target: T1, Microtubule-associated protein tau; test: Binding affinity to recombinant human tau expressed in Escherichia coli assessed per nanomolar of protein after 30 mins by fluorescence assay; settings: tested as the 18F-labelled form
[56] = target: T1, Microtubule-associated protein tau; test: Binding affinity to tau protein in human alzheimer's disease patient brain white matter at 92.5 kBq after 2 hrs by immunohistological staining; format: tissue-based; settings: tested as the 18F-labelled form
Homo sapiens [57] = species on record: Homo sapiens; test: Binding affinity to neurofibrillary tangles in human alzheimer's disease patient brain at 92.5 kBq after 30 mins by immunohistological staining

Drug uptake (Blood [1]): 1.83 % ID/g | Drug uptake (Intestine [2]): 14.4 % ID/g | Drug uptake (Kidney [3]): 13.9 % ID/g | Drug uptake (Lung [4]): 3.59 % ID/g | Drug uptake (Blood [5]): 2.68 % ID/g | Drug uptake (Bone [6]): 1.92 % ID/g | Drug uptake (Brain [7]): 3.47 % ID/g | Drug uptake (Stomach [8]): 2.69 %ID | Drug uptake (Intestine [9]): 4.99 % ID/g | Drug uptake (Spleen [10]): 3.47 % ID/g | Drug uptake (Heart [11]): 2.62 % ID/g | Drug uptake (Brain [12]): 2.53 % ID/g | Drug uptake (Spleen [13]): 3.41 % ID/g | Drug uptake (Blood [14]): 3.04 % ID/g | Drug uptake (Lung [15]): 4.37 % ID/g | Drug uptake (Kidney [16]): 7.67 % ID/g | Drug uptake (Spleen [17]): 2.14 % ID/g | Drug uptake (Intestine [18]): 2.94 % ID/g | Drug uptake (Bone [19]): 1.82 % ID/g | Drug uptake (Intestine [20]): 22.9 % ID/g | Drug uptake (Heart [21]): 4.14 % ID/g | Drug uptake (Liver [22]): 13.1 % ID/g | Drug uptake (Pancreas [23]): 4.01 % ID/g | Drug uptake (Heart [24]): 7.45 % ID/g | Drug uptake (Kidney [25]): 4 % ID/g | Drug uptake (Bone [26]): 1.88 % ID/g | logP at 10 min [27]: 2.05 | Drug uptake (Brain [28]): 4.26 % ID/g | Kd [29]: 45.4 nM | Drug uptake (Liver [30]): 9.32 % ID/g | Drug uptake (Heart [31]): 3.05 % ID/g | Drug uptake (Liver [32]): 19.3 % ID/g | Drug uptake (Pancreas [33]): 2.87 % ID/g | Drug uptake (Pancreas [34]): 2.18 % ID/g | Drug uptake (Spleen [35]): 2.71 % ID/g | Drug uptake (Lung [36]): 3.36 % ID/g | Drug uptake (Blood [37]): 2.19 % ID/g | Drug uptake (Stomach [38]): 1.11 %ID | Drug uptake (Stomach [39]): 3.37 %ID | Drug uptake (Pancreas [40]): 5.41 % ID/g | Drug uptake (Brain [41]): 4.28 % ID/g | Drug uptake (Kidney [42]): 5.08 % ID/g | Drug uptake (Lung [43]): 13.5 % ID/g | Drug uptake (Bone [44]): 1.82 % ID/g | Drug uptake (Liver [45]): 20.2 % ID/g | Drug uptake (Stomach [46]): 1.42 %ID | Drug uptake (Brain [47]): Not Active | Kd [48]: 44.8 nM
Structure (SMILES): CN(C)c1ccc(/N=N/c2nc3ccc(OCCOCCOCC[18F])cc3s2)cc1

IC50 [49]: 256 nM | Ki [49]: 13 nM | Ratio Ki (Homo sapiens [50]): 1.54 | Bmax [51]: 38.9 pmol | Activity [52]: Active | Activity (Homo sapiens [53]): Active | IC50 [54]: 47.3 nM | Ki [54]: 20 nM | Bmax [55]: 45.8 pmol | Activity [56]: Active | Activity (Homo sapiens [57]): Active
Structure (SMILES): CN(C)c1ccc(/N=N/c2nc3ccc(OCCOCCOCCF)cc3s2)cc1

Ki [49]: 0.48 nM | Ratio Ki (Homo sapiens [50]): 17.2
Structure (SMILES): CN(C)c1ccc(/N=N/c2nc3ccc(I)cc3s2)cc1

Drug uptake (Brain [12]): 2.89 % ID/g | logP at 10 min [27]: 3.84 | Drug uptake (Brain [41]): 0.94 % ID/g
Structure (SMILES): CN(C)c1ccc(/N=N/c2nc3ccc([125I])cc3s2)cc1
